Results taken from PubChem BioAssay AID256 (DTP/NCI, 2004).
“And” between values parts separate entries of the source, which are not always exact repeats. Identical values can stand only once. Inconclusive results and toxic doses are left out.

System: CD2F1 mice, L1210 leukemia ip, survival T/C
Test: NCI In Vivo Anticancer Drug Screen. Data for tumor model L1210 Leukemia (intraperitoneal) in CD2F1 (CDF1) mice
Settings: higher = longer survival
Summary of the method: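 Mice carrying a transplanted tumor received test compound or vehicle alone. The value is the measurement in the treated group divided by that in the vehicle-treated control group.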

In the case of `O=C1c2ccccc2C(=O)c2c(NCCNCCO)ccc(NCCNCCO)c21`, the T/C (endpoint: mean survival time, dose: 1.0 mg/kg/injection, schedule: Q01DX005 (iv), vehicle: clinical formulation) is reported as 104 % of control, the T/C (endpoint: mean survival time, dose: 2.0 mg/kg/injection, schedule: Q01DX005 (iv), vehicle: saline) is reported as 98 % of control and the T/C (endpoint: mean survival time, dose: 2.0 mg/kg/injection, schedule: Q01DX009 (ip), vehicle: saline) is reported as 153 % of control. The T/C (endpoint: mean survival time, dose: 2.5 mg/kg/injection, schedule: Q01DX009 (ip), vehicle: saline) was 190 % of control, the T/C (endpoint: mean survival time, dose: 2.62 mg/kg/injection, schedule: Q01DX009 (ip), vehicle: saline) was 156 % of control and the T/C (endpoint: mean survival time, dose: 4.0 mg/kg/injection, schedule: Q01DX005 (iv), vehicle: clinical formulation) was 123 % of control. The T/C (endpoint: mean survival time, dose: 4.0 mg/kg/injection, schedule: Q01DX005 (oral), vehicle: acid diluted with saline) was 102 % of control, the T/C (endpoint: mean survival time, dose: 4.0 mg/kg/injection, schedule: Q01DX009 (ip), vehicle: clinical formulation) was 157 % of control and the T/C (endpoint: mean survival time, dose: 4.0 mg/kg/injection, schedule: Q01DX009 (ip), vehicle: saline) was 271 % of control. For the same compound, the T/C (endpoint: mean survival time, dose: 4.0 mg/kg/injection, schedule: Q04DX003 (ip), vehicle: water) was 284 % of control, the T/C (endpoint: mean survival time, dose: 5.0 mg/kg/injection, schedule: Q01DX009 (ip), vehicle: saline) was 156 % of control and 186 % of control and the T/C (endpoint: mean survival time, dose: 5.25 mg/kg/injection, schedule: Q01DX009 (ip), vehicle: saline) was 159 % of control. For the same compound, the T/C (endpoint: mean survival time, dose: 8.0 mg/kg/injection, schedule: Q01DX005 (iv), vehicle: clinical formulation) was 120 % of control, the T/C (endpoint: mean survival time, dose: 8.0 mg/kg/injection, schedule: Q01DX005 (iv), vehicle: saline) was 119 % of control and the T/C (endpoint: mean survival time, dose: 8.0 mg/kg/injection, schedule: Q01DX005 (oral), vehicle: acid diluted with saline) was 98 % of control. The T/C (endpoint: mean survival time, dose: 8.0 mg/kg/injection, schedule: Q01DX005 (oral), vehicle: saline) was 101 % of control, the T/C (endpoint: mean survival time, dose: 8.0 mg/kg/injection, schedule: Q01DX009 (ip), vehicle: clinical formulation) was 346 % of control and the T/C (endpoint: mean survival time, dose: 8.0 mg/kg/injection, schedule: Q01DX009 (ip), vehicle: saline) was 281 % of control. The T/C (endpoint: mean survival time, dose: 8.0 mg/kg/injection, schedule: Q01DX009 (ip), vehicle: water) was 163 % of control and 166 % of control, the T/C (endpoint: mean survival time, dose: 8.0 mg/kg/injection, schedule: Q04DX003 (ip), vehicle: water) was 261 % of control and the T/C (endpoint: mean survival time, dose: 10.0 mg/kg/injection, schedule: Q01DX009 (ip), vehicle: saline) was 218 % of control and 219 % of control. For the same compound, the T/C (endpoint: mean survival time, dose: 10.5 mg/kg/injection, schedule: Q01DX009 (ip), vehicle: saline) was 228 % of control, the T/C (endpoint: mean survival time, dose: 11.7 mg/kg/injection, schedule: Q01DX001 (iv), vehicle: saline) was 98 % of control and the T/C (endpoint: mean survival time, dose: 16.0 mg/kg/injection, schedule: Q01DX005 (ip), vehicle: saline) was 170 % of control. For the same compound, the T/C (endpoint: mean survival time, dose: 16.0 mg/kg/injection, schedule: Q01DX005 (iv), vehicle: clinical formulation) was 164 % of control, the T/C (endpoint: mean survival time, dose: 16.0 mg/kg/injection, schedule: Q01DX005 (oral), vehicle: saline) was 101 % of control and the T/C (endpoint: mean survival time, dose: 16.0 mg/kg/injection, schedule: Q01DX009 (ip), vehicle: clinical formulation) was 461 % of control. The T/C (endpoint: mean survival time, dose: 16.0 mg/kg/injection, schedule: Q01DX009 (ip), vehicle: saline) was 529 % of control, the T/C (endpoint: mean survival time, dose: 16.0 mg/kg/injection, schedule: Q01DX009 (ip), vehicle: water) was 153 % of control and 183 % of control and the T/C (endpoint: mean survival time, dose: 19.4 mg/kg/injection, schedule: Q01DX001 (iv), vehicle: saline) was 102 % of control. The T/C (endpoint: mean survival time, dose: 20.0 mg/kg/injection, schedule: Q01DX009 (ip), vehicle: saline) was 158 % of control and 219 % of control, the T/C (endpoint: mean survival time, dose: 32.0 mg/kg/injection, schedule: Q01DX005 (ip), vehicle: saline) was 263 % of control and the T/C (endpoint: mean survival time, dose: 32.0 mg/kg/injection, schedule: Q01DX005 (iv), vehicle: saline) was 150 % of control. The T/C (endpoint: mean survival time, dose: 32.0 mg/kg/injection, schedule: Q01DX005 (oral), vehicle: acid diluted with saline) was 98 % of control, the T/C (endpoint: mean survival time, dose: 32.0 mg/kg/injection, schedule: Q01DX005 (oral), vehicle: saline) was 103 % of control and the T/C (endpoint: mean survival time, dose: 32.0 mg/kg/injection, schedule: Q01DX009 (ip), vehicle: clinical formulation) was 96 % of control. For the same compound, the T/C (endpoint: mean survival time, dose: 32.0 mg/kg/injection, schedule: Q01DX009 (ip), vehicle: water) was 92 % of control, the T/C (endpoint: mean survival time, dose: 32.0 mg/kg/injection, schedule: Q04DX003 (ip), vehicle: saline) was 160 % of control and the T/C (endpoint: mean survival time, dose: 32.4 mg/kg/injection, schedule: Q01DX001 (ip), vehicle: saline) was 158 % of control and 160 % of control. The T/C (endpoint: mean survival time, dose: 32.4 mg/kg/injection, schedule: Q01DX001 (iv), vehicle: saline) was 117 % of control, the T/C (endpoint: mean survival time, dose: 40.0 mg/kg/injection, schedule: Q01DX009 (ip), vehicle: saline) was 91 % of control and 96 % of control and the T/C (endpoint: mean survival time, dose: 42.0 mg/kg/injection, schedule: Q01DX009 (ip), vehicle: saline) was 90 % of control. The T/C (endpoint: mean survival time, dose: 54.0 mg/kg/injection, schedule: Q01DX001 (ip), vehicle: saline) was 150 % of control and 160 % of control, the T/C (endpoint: mean survival time, dose: 64.0 mg/kg/injection, schedule: Q01DX005 (ip), vehicle: saline) was 89 % of control and the T/C (endpoint: mean survival time, dose: 64.0 mg/kg/injection, schedule: Q01DX005 (oral), vehicle: acid diluted with saline) was 92 % of control. For the same compound, the T/C (endpoint: mean survival time, dose: 64.0 mg/kg/injection, schedule: Q01DX009 (ip), vehicle: water) was 90 % of control, the T/C (endpoint: mean survival time, dose: 64.0 mg/kg/injection, schedule: Q04DX003 (ip), vehicle: saline) was 289 % of control and the T/C (endpoint: mean survival time, dose: 90.0 mg/kg/injection, schedule: Q01DX001 (ip), vehicle: saline) was 182 % of control. For the same compound, the T/C (endpoint: mean survival time, dose: 128.0 mg/kg/injection, schedule: Q01DX005 (oral), vehicle: acid diluted with saline) was 100 % of control, the T/C (endpoint: mean survival time, dose: 128.0 mg/kg/injection, schedule: Q04DX003 (ip), vehicle: saline) was 247 % of control and the T/C (endpoint: mean survival time, dose: 150.0 mg/kg/injection, schedule: Q01DX001 (ip), vehicle: saline) was 221 % of control and 98 % of control. The T/C (endpoint: median survival time, dose: 0.25 mg/kg/injection, schedule: Q01DX005 (iv), vehicle: clinical formulation) was 97 % of control, the T/C (endpoint: median survival time, dose: 0.25 mg/kg/injection, schedule: Q01DX005 (iv), vehicle: water) was 102 % of control and the T/C (endpoint: median survival time, dose: 0.25 mg/kg/injection, schedule: Q01DX009 (ip), vehicle: water) was 118 % of control. For the same compound, the T/C (endpoint: median survival time, dose: 0.5 mg/kg/injection, schedule: Q01DX005 (iv), vehicle: clinical formulation) was 97 % of control, the T/C (endpoint: median survival time, dose: 0.5 mg/kg/injection, schedule: Q01DX005 (iv), vehicle: water) was 98 % of control and the T/C (endpoint: median survival time, dose: 0.5 mg/kg/injection, schedule: Q01DX009 (ip), vehicle: clinical formulation) was 121 % of control. The T/C (endpoint: median survival time, dose: 1.0 mg/kg/injection, schedule: Q01DX005 (iv), vehicle: clinical formulation) was 102 % of control, the T/C (endpoint: median survival time, dose: 1.0 mg/kg/injection, schedule: Q01DX005 (iv), vehicle: water) was 97 % of control and the T/C (endpoint: median survival time, dose: 2.0 mg/kg/injection, schedule: Q01DX005 (iv), vehicle: clinical formulation) was 97 % of control. For the same compound, the T/C (endpoint: median survival time, dose: 2.0 mg/kg/injection, schedule: Q01DX005 (iv), vehicle: water) was 102 % of control, the T/C (endpoint: median survival time, dose: 2.0 mg/kg/injection, schedule: Q01DX009 (ip), vehicle: Klucel (hydroxypropylcellulose) (HPC)) was 151 % of control and the T/C (endpoint: median survival time, dose: 4.0 mg/kg/injection, schedule: Q01DX005 (iv), vehicle: clinical formulation) was 115 % of control. The T/C (endpoint: median survival time, dose: 4.0 mg/kg/injection, schedule: Q01DX009 (ip), vehicle: Klucel (hydroxypropylcellulose) (HPC)) was 197 % of control, the T/C (endpoint: median survival time, dose: 4.0 mg/kg/injection, schedule: Q01DX009 (ip), vehicle: clinical formulation) was 160 % of control and the T/C (endpoint: median survival time, dose: 4.0 mg/kg/injection, schedule: Q01DX009 (ip), vehicle: water) was 156 % of control. The T/C (endpoint: median survival time, dose: 4.0 mg/kg/injection, schedule: Q01DX009 (sc), vehicle: Klucel (hydroxypropylcellulose) (HPC)) was 120 % of control, the T/C (endpoint: median survival time, dose: 4.0 mg/kg/injection, schedule: Q01DX009 (sc), vehicle: water) was 112 % of control and the T/C (endpoint: median survival time, dose: 8.0 mg/kg/injection, schedule: Q01DX009 (ip), vehicle: Klucel (hydroxypropylcellulose) (HPC)) was 156 % of control and 182 % of control. For the same compound, the T/C (endpoint: median survival time, dose: 8.0 mg/kg/injection, schedule: Q01DX009 (ip), vehicle: clinical formulation) was 196 % of control, the T/C (endpoint: median survival time, dose: 8.0 mg/kg/injection, schedule: Q01DX009 (ip), vehicle: water) was 177 % of control and the T/C (endpoint: median survival time, dose: 16.0 mg/kg/injection, schedule: Q01DX005 (iv), vehicle: water) was 155 % of control. For the same compound, the T/C (endpoint: median survival time, dose: 16.0 mg/kg/injection, schedule: Q01DX005 (oral), vehicle: Klucel (hydroxypropylcellulose) (HPC)) was 104 % of control, the T/C (endpoint: median survival time, dose: 16.0 mg/kg/injection, schedule: Q01DX009 (ip), vehicle: Klucel (hydroxypropylcellulose) (HPC)) was 170 % of control and 188 % of control and the T/C (endpoint: median survival time, dose: 16.0 mg/kg/injection, schedule: Q01DX009 (ip), vehicle: clinical formulation) was 238 % of control. The T/C (endpoint: median survival time, dose: 16.0 mg/kg/injection, schedule: Q01DX009 (ip), vehicle: water) was 262 % of control, the T/C (endpoint: median survival time, dose: 16.0 mg/kg/injection, schedule: Q01DX009 (sc), vehicle: Klucel (hydroxypropylcellulose) (HPC)) was 174 % of control and the T/C (endpoint: median survival time, dose: 16.0 mg/kg/injection, schedule: Q01DX009 (sc), vehicle: water) was 164 % of control. For the same compound, the T/C (endpoint: median survival time, dose: 32.0 mg/kg/injection, schedule: Q01DX005 (iv), vehicle: clinical formulation) was 180 % of control, the T/C (endpoint: median survival time, dose: 32.0 mg/kg/injection, schedule: Q01DX005 (iv), vehicle: water) was 174 % of control and the T/C (endpoint: median survival time, dose: 32.0 mg/kg/injection, schedule: Q01DX005 (oral), vehicle: Klucel (hydroxypropylcellulose) (HPC)) was 104 % of control. The T/C (endpoint: median survival time, dose: 32.0 mg/kg/injection, schedule: Q01DX009 (ip), vehicle: Klucel (hydroxypropylcellulose) (HPC)) was 197 % of control and 365 % of control, the T/C (endpoint: median survival time, dose: 32.0 mg/kg/injection, schedule: Q01DX009 (ip), vehicle: clinical formulation) was 115 % of control and the T/C (endpoint: median survival time, dose: 32.0 mg/kg/injection, schedule: Q01DX009 (ip), vehicle: water) was 101 % of control. For the same compound, the T/C (endpoint: median survival time, dose: 32.0 mg/kg/injection, schedule: Q01DX009 (sc), vehicle: water) was 172 % of control, the T/C (endpoint: median survival time, dose: 64.0 mg/kg/injection, schedule: Q01DX009 (sc), vehicle: Klucel (hydroxypropylcellulose) (HPC)) was 96 % of control and the T/C (endpoint: median survival time, dose: 64.0 mg/kg/injection, schedule: Q01DX009 (sc), vehicle: water) was 101 % of control. For the same compound, the T/C (endpoint: median survival time, dose: 1024.0 mg/kg/injection, schedule: Q01DX005 (oral), vehicle: Klucel (hydroxypropylcellulose) (HPC)) was 91 % of control.
